# According to ChEMBL document CHEMBL1268864, “Dolabranes from the Chinese Mangrove, Ceriops tagal” (2010):
# Calls of active or inactive are those of the source. No cut-off for these calls is given here.
# Experiments:
# [1] = system: Brontispa longissima; assay: Antifeedant activity against third-instar larvae of Brontispa longissima at 1 mg/ml after 24 hrs by leaf disk method; assay type: functional
# [2] = system: Brontispa longissima; assay: Antifeedant activity against third-instar larvae of Brontispa longissima at 0.1 mg/ml after 48 hrs by leaf disk method; assay type: functional
# [3] = system: MDA-MB-435; assay: Cytotoxicity against human MDA-MB-435 cells by MTT assay; assay type: functional, cell-based
# [4] = system: Brontispa longissima; assay: Antifeedant activity against third-instar larvae of Brontispa longissima at 0.1 mg/ml after 24 hrs by leaf disk method; assay type: functional
# [5] = system: A2058; assay: Cytotoxicity against human A2058 cells by MTT assay; assay type: functional, cell-based
# [6] = system: Brontispa longissima; assay: Antifeedant activity against third-instar larvae of Brontispa longissima at 0.5 mg/ml after 48 hrs by leaf disk method; assay type: functional
# [7] = system: MDA-MB-468; assay: Cytotoxicity against human MDA-MB-468 cells by MTT assay; assay type: functional, cell-based
# [8] = system: Brontispa longissima; assay: Antifeedant activity against third-instar larvae of Brontispa longissima at 1 mg/ml after 48 hrs by leaf disk method; assay type: functional
# [9] = system: Brontispa longissima; assay: Antifeedant activity against third-instar larvae of Brontispa longissima at 0.5 mg/ml after 24 hrs by leaf disk method; assay type: functional
# [10] = system: DU-145; assay: Cytotoxicity against human DU145 cells by MTT assay; assay type: functional, cell-based
# [11] = system: G-361; assay: Cytotoxicity against human G361 cells by MTT assay; assay type: functional, cell-based
SMILES,Activity [1],Activity [2],Activity [3],Activity [4],Activity [5],Activity [6],Activity [7],Activity [8],Activity [9],Activity [10],Activity [11]
C=C1C(=O)CC[C@@H]2[C@@]3(C)CC[C@](C)(C(O)CO)C[C@@H]3CC[C@]12C (stereo partly specified) [TAGALSIN U],52%,10%,inactive,14%,inactive,31%,inactive,41%,41%,inactive,inactive
C[C@]1(C(O)CO)CC[C@@]2(C)[C@@H](CC[C@]3(C)/C(=C/O)C(=O)CC[C@H]23)C1 (stereo partly specified) [TAGALSIN T],-5%,-48%,inactive,-32%,inactive,-31%,inactive,-20%,-11%,inactive,inactive
C[C@]1(C(=O)CO)CC[C@@]2(C)[C@@H](CC[C@]3(C)/C(=C/O)C(=O)CC[C@H]23)C1 [TAGALSIN S],51%,36%,inactive,25%,inactive,37%,inactive,47%,45%,inactive,inactive
C=C1C(=O)C=C[C@@H]2[C@@]3(C)CC[C@](C)(O)C[C@@H]3CC[C@]12C [TAGALSIN Q],53%,30%,inactive,23%,inactive,36%,inactive,43%,50%,inactive,inactive
C[C@]1(C(=O)O)CC[C@@]2(C)[C@@H](CC[C@]3(C)/C(=C/O)C(=O)CC[C@H]23)C1 [TAGALSIN R],40%,7%,inactive,18%,inactive,30%,inactive,28%,37%,inactive,inactive
CC1=C(O)C(=O)C[C@@H]2[C@@]3(C)CC[C@](C)(O)C[C@@H]3CC[C@]12C [TAGALSIN P],48%,2%,inactive,14%,inactive,6%,inactive,22%,18%,inactive,inactive
